Assay results published in PubChem BioAssay AID1918938 (Molecular Pharmacology Branch, DTP, NCI, 2023).
pIC50: −log10 of the molar value.

Tested on: 556581-035-R-J1-PDC complex spheroid viability
Assay: Anticancer human tumor 556581-035-R-J1-PDC patient-derived ovarian carcinoma cell line growth inhibition
Details: for pIC50: curve of first compound; for viability, T/C: stronger effect = lower value
In short: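 Complex spheroids of tumor cells with HUVEC and human MSCs, exposed to iadademstat combined with other agents. Each agent tested in half-log steps from near clinical Cmax (else 10 microM top), DMSO ≤0.25%.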

[1] = second compound 0.1 µM, first compound 0.00316 µM
[2] = second compound 0.1 µM, first compound 0.01 µM
[3] = second compound 0.1 µM, first compound 0.0316 µM
[4] = second compound 0.1 µM, first compound 0.1 µM
[5] = second compound 0.316 µM, first compound 0.00316 µM
[6] = second compound 0.316 µM, first compound 0.01 µM
[7] = second compound 0.316 µM, first compound 0.0316 µM
[8] = second compound 0.316 µM, first compound 0.1 µM
[9] = second compound 1 µM, first compound 0.00316 µM
[10] = second compound 1 µM, first compound 0.01 µM
[11] = second compound 1 µM, first compound 0.0316 µM
[12] = second compound 1 µM, first compound 0.1 µM
[13] = second compound 3.16 µM, first compound 0.00316 µM
[14] = second compound 3.16 µM, first compound 0.01 µM
[15] = second compound 3.16 µM, first compound 0.0316 µM
[16] = second compound 3.16 µM, first compound 0.1 µM
[17] = second compound 10 µM, first compound 0.00316 µM
[18] = second compound 10 µM, first compound 0.01 µM
[19] = second compound 10 µM, first compound 0.0316 µM
[20] = second compound 10 µM, first compound 0.1 µM
[21] = second compound 0.1 µM, first compound 0.00949 µM
[22] = second compound 0.1 µM, first compound 0.03 µM
[23] = second compound 0.1 µM, first compound 0.0949 µM
[24] = second compound 0.1 µM, first compound 0.3 µM
[25] = second compound 0.1 µM, first compound 0.949 µM
[26] = second compound 0.1 µM, first compound 3 µM
[27] = second compound 0.316 µM, first compound 0.00949 µM
[28] = second compound 0.316 µM, first compound 0.03 µM
[29] = second compound 0.316 µM, first compound 0.0949 µM
[30] = second compound 0.316 µM, first compound 0.3 µM
[31] = second compound 0.316 µM, first compound 0.949 µM
[32] = second compound 0.316 µM, first compound 3 µM
[33] = second compound 1 µM, first compound 0.00949 µM
[34] = second compound 1 µM, first compound 0.03 µM
[35] = second compound 1 µM, first compound 0.0949 µM
[36] = second compound 1 µM, first compound 0.3 µM
[37] = second compound 1 µM, first compound 0.949 µM
[38] = second compound 1 µM, first compound 3 µM
[39] = second compound 3.16 µM, first compound 0.00949 µM
[40] = second compound 3.16 µM, first compound 0.03 µM
[41] = second compound 3.16 µM, first compound 0.0949 µM
[42] = second compound 3.16 µM, first compound 0.3 µM
[43] = second compound 3.16 µM, first compound 0.949 µM
[44] = second compound 3.16 µM, first compound 3 µM
[45] = second compound 10 µM, first compound 0.00949 µM
[46] = second compound 10 µM, first compound 0.03 µM
[47] = second compound 10 µM, first compound 0.0949 µM
[48] = second compound 10 µM, first compound 0.3 µM
[49] = second compound 10 µM, first compound 0.949 µM
[50] = second compound 10 µM, first compound 3 µM
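Note: spheroids exposed to agents for seven days.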
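Throughout, for viability, T/C: 100% = DMSO vehicle control wells.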

SMILES: COc1cc(Nc2ncc3c(n2)-c2ccc(Cl)cc2C(c2c(F)cccc2OC)=NC3)ccc1C(=O)O + NC1CCC(NC2CC2c2ccccc2)CC1
- pIC50 (second compound 0.1 µM): 6.44
- pIC50 (second compound 0.316 µM): 6.51
- pIC50 (second compound 1 µM): 6.60
- pIC50 (second compound 3.16 µM): 6.67
- pIC50 (second compound 10 µM): 6.84
- viability, T/C [1]: 67.5%
- viability, T/C [2]: 59.8%
- viability, T/C [3]: 58.4%
- viability, T/C [4]: 56.1%
- viability, T/C (second compound 0.1 µM, first compound 0.316 µM): 54.9%
- viability, T/C (second compound 0.1 µM, first compound 1 µM): 38.6%
- viability, T/C [5]: 65.1%
- viability, T/C [6]: 67.8%
- viability, T/C [7]: 63.9%
- viability, T/C [8]: 55%
- viability, T/C (second compound 0.316 µM, first compound 0.316 µM): 50.1%
- viability, T/C (second compound 0.316 µM, first compound 1 µM): 39.3%
- viability, T/C [9]: 62.3%
- viability, T/C [10]: 60.6%
- viability, T/C [11]: 57%
- viability, T/C [12]: 57.2%
- viability, T/C (second compound 1 µM, first compound 0.316 µM): 46.9%
- viability, T/C (second compound 1 µM, first compound 1 µM): 41.4%
- viability, T/C [13]: 66.5%
- viability, T/C [14]: 66.4%
- viability, T/C [15]: 61.4%
- viability, T/C [16]: 49%
- viability, T/C (second compound 3.16 µM, first compound 0.316 µM): 53%
- viability, T/C (second compound 3.16 µM, first compound 1 µM): 35.3%
- viability, T/C [17]: 58.6%
- viability, T/C [18]: 54.6%
- viability, T/C [19]: 58.5%
- viability, T/C [20]: 50.3%
- viability, T/C (second compound 10 µM, first compound 0.316 µM): 46%
- viability, T/C (second compound 10 µM, first compound 1 µM): 36.8%

SMILES: Cn1ncnc1C1c2n[nH]c(=O)c3cc(F)cc(c23)NC1c1ccc(F)cc1 (stereo not given) + NC1CCC(NC2CC2c2ccccc2)CC1
- pIC50 (second compound 0.1 µM): < 7.00
- pIC50 (second compound 0.316 µM): < 7.00
- pIC50 (second compound 1 µM): < 7.00
- pIC50 (second compound 3.16 µM): < 7.00
- pIC50 (second compound 10 µM): < 7.00
- viability, T/C (second compound 0.1 µM, first compound 0.000316 µM): 97%
- viability, T/C (second compound 0.1 µM, first compound 0.001 µM): 105%
- viability, T/C [1]: 92.3%
- viability, T/C [2]: 91.2%
- viability, T/C [3]: 94%
- viability, T/C [4]: 85.4%
- viability, T/C (second compound 0.316 µM, first compound 0.000316 µM): 100%
- viability, T/C (second compound 0.316 µM, first compound 0.001 µM): 94.7%
- viability, T/C [5]: 99.6%
- viability, T/C [6]: 91.6%
- viability, T/C [7]: 87.4%
- viability, T/C [8]: 91.9%
- viability, T/C (second compound 1 µM, first compound 0.000316 µM): 91%
- viability, T/C (second compound 1 µM, first compound 0.001 µM): 92.2%
- viability, T/C [9]: 94.1%
- viability, T/C [10]: 101%
- viability, T/C [11]: 80.6%
- viability, T/C [12]: 92.1%
- viability, T/C (second compound 3.16 µM, first compound 0.000316 µM): 87.1%
- viability, T/C (second compound 3.16 µM, first compound 0.001 µM): 87.2%
- viability, T/C [13]: 89.3%
- viability, T/C [14]: 79.5%
- viability, T/C [15]: 84.9%
- viability, T/C [16]: 80.8%
- viability, T/C (second compound 10 µM, first compound 0.000316 µM): 73.9%
- viability, T/C (second compound 10 µM, first compound 0.001 µM): 77.8%
- viability, T/C [17]: 76.1%
- viability, T/C [18]: 80.8%
- viability, T/C [19]: 73.5%
- viability, T/C [20]: 71.5%

SMILES: NS(=O)(=O)OCC1CC(n2ccc3c(NC4CCc5ccccc54)ncnc32)CC1O (stereo not given) + NC1CCC(NC2CC2c2ccccc2)CC1
- pIC50 (second compound 0.1 µM): < 5.52
- pIC50 (second compound 0.316 µM): < 5.52
- pIC50 (second compound 1 µM): 5.63
- pIC50 (second compound 3.16 µM): 5.82
- pIC50 (second compound 10 µM): 6.26
- viability, T/C [21]: 117%
- viability, T/C [22]: 122%
- viability, T/C [23]: 124%
- viability, T/C [24]: 91.3%
- viability, T/C [25]: 86.6%
- viability, T/C [26]: 58.4%
- viability, T/C [27]: 119%
- viability, T/C [28]: 112%
- viability, T/C [29]: 123%
- viability, T/C [30]: 99.8%
- viability, T/C [31]: 85.7%
- viability, T/C [32]: 50.4%
- viability, T/C [33]: 99%
- viability, T/C [34]: 115%
- viability, T/C [35]: 121%
- viability, T/C [36]: 92.2%
- viability, T/C [37]: 74.3%
- viability, T/C [38]: 43.7%
- viability, T/C [39]: 103%
- viability, T/C [40]: 106%
- viability, T/C [41]: 110%
- viability, T/C [42]: 84.8%
- viability, T/C [43]: 65.9%
- viability, T/C [44]: 28.8%
- viability, T/C [45]: 86.7%
- viability, T/C [46]: 86.1%
- viability, T/C [47]: 83.4%
- viability, T/C [48]: 62.1%
- viability, T/C [49]: 37.9%
- viability, T/C [50]: 15.2%

SMILES: O=C(C=Cc1cccc(S(=O)(=O)Nc2ccccc2)c1)NO + NC1CCC(NC2CC2c2ccccc2)CC1
- pIC50 (second compound 0.1 µM): 6.97
- pIC50 (second compound 0.316 µM): 7.06
- pIC50 (second compound 1 µM): 7.12
- pIC50 (second compound 3.16 µM): 7.03
- pIC50 (second compound 10 µM): 7.40
- viability, T/C [21]: 85.6%
- viability, T/C [22]: 78.4%
- viability, T/C [23]: 51.1%
- viability, T/C [24]: 26.1%
- viability, T/C [25]: 1.81%
- viability, T/C [26]: 0.24%
- viability, T/C [27]: 87.7%
- viability, T/C [28]: 74.3%
- viability, T/C [29]: 42.9%
- viability, T/C [30]: 31.7%
- viability, T/C [31]: 3.05%
- viability, T/C [32]: 0.34%
- viability, T/C [33]: 97.2%
- viability, T/C [34]: 65.7%
- viability, T/C [35]: 50.4%
- viability, T/C [36]: 24.6%
- viability, T/C [37]: 2.56%
- viability, T/C [38]: 0.21%
- viability, T/C [39]: 77.9%
- viability, T/C [40]: 73.1%
- viability, T/C [41]: 47.9%
- viability, T/C [42]: 22%
- viability, T/C [43]: 2.44%
- viability, T/C [44]: 0.16%
- viability, T/C [45]: 74.2%
- viability, T/C [46]: 51.7%
- viability, T/C [47]: 37.6%
- viability, T/C [48]: 23%
- viability, T/C [49]: 1.28%
- viability, T/C [50]: 0.28%
